Experimental data as given in ChEMBL document CHEMBL5154779, “Exploration of novel phthalazinone derivatives as potential efflux transporter inhibitors for reversing multidrug resistance and improving the oral absorption of paclitaxel” (Eur J Med Chem, 2022).
Counter-ions that a name gives are not always drawn. Values belong to the compound of their own block, whether it stands above or below them. Active and inactive are the calls of the source. The calls are words filed in the database; no cut-off is given here.

Key:
[1] = Oral bioavailability in male Sprague-Dawley rat at 20 mg/kg,po pretreated with 3-4-chloropheny1-N-4-2-morpholinoethylpheny1-4-oxo-3,4-dihydrophthalazine-1-carboxamide at 10 mg/kg measured by LC/MS analysis; type: ADME, organism-based; settings: in vivo
[2] = Cmax in male Sprague-Dawley rat at 20 mg/kg,po pretreated with 3-4-chloropheny1-N-4-2-morpholinoethylpheny1-4-oxo-3,4-dihydrophthalazine-1-carboxamide at 10 mg/kg measured by LC/MS analysis; type: ADME, organism-based; set-up: dose 20 mg/kg, route po; settings: in vivo
[3] = Tmax in male Sprague-Dawley rat at 20 mg/kg,po pretreated with 3-4-chloropheny1-N-4-2-morpholinoethylpheny1-4-oxo-3,4-dihydrophthalazine-1-carboxamide at 10 mg/kg measured by LC/MS analysis; type: ADME, organism-based; settings: in vivo
[4] = AUC (0 to t) in male Sprague-Dawley rat at 20 mg/kg,po pretreated with 3-4-chloropheny1-N-4-2-morpholinoethylpheny1-4-oxo-3,4-dihydrophthalazine-1-carboxamide at 10 mg/kg measured by LC/MS analysis; type: ADME, organism-based; set-up: dose 20 mg/kg, route po; settings: in vivo
[5] = Bioavailability in male Sprague-Dawley rat at 5 mg/kg,iv measured by LC/MS analysis; type: ADME, organism-based; settings: in vivo
[6] = Apparent permeability of compound in human Caco-2 cells from apical to basal after 60 mins by LC-MS/MS analysis; type: ADME, cell-based
[7] = Apparent permeability of compound in human Caco-2 cells from basal to apical after 180 mins by LC-MS/MS analysis; type: ADME, cell-based
[8] = Apparent permeability of compound in human Caco-2 cells from basal to apical after 90 mins by LC-MS/MS analysis; type: ADME, cell-based
[9] = Cmax in male Sprague-Dawley rat at 20 mg/kg,po measured by LC/MS analysis; type: ADME, organism-based; set-up: dose 20 mg/kg, route po; settings: in vivo
[10] = Apparent permeability of compound in human Caco-2 cells from apical to basal after 120 mins by LC-MS/MS analysis; type: ADME, cell-based
[11] = Apparent permeability of compound in human Caco-2 cells from apical to basal after 180 mins by LC-MS/MS analysis; type: ADME, cell-based
[12] = Tmax in male Sprague-Dawley rat at 20 mg/kg,po measured by LC/MS analysis; type: ADME, organism-based; settings: in vivo
[13] = Apparent permeability of compound in human Caco-2 cells from basal to apical after 120 mins by LC-MS/MS analysis; type: ADME, cell-based
[14] = system: Caco-2; test: Cytotoxicity against human Caco-2 cells assessed as reduction in cell viability at 30 uM after 48 hrs by MTT assay; type: toxicity, cell-based; settings: caco-2, 48 h
[15] = Apparent permeability of compound in human Caco-2 cells from apical to basal after 30 mins by LC-MS/MS analysis; type: ADME, cell-based
[16] = in vivo; settings: male, Sprague-Dawley, rat, po, 20 mg/kg
[17] = Apparent oral volume of distribution in male Sprague-Dawley rat at 20 mg/kg,po pretreated with 3-4-chloropheny1-N-4-2-morpholinoethylpheny1-4-oxo-3,4-dihydrophthalazine-1-carboxamide at 10 mg/kg measured by LC/MS analysis; type: ADME, organism-based; settings: in vivo
[18] = Apparent oral clearance in male Sprague-Dawley rat at 20 mg/kg,po pretreated with 3-4-chloropheny1-N-4-2-morpholinoethylpheny1-4-oxo-3,4-dihydrophthalazine-1-carboxamide at 10 mg/kg measured by LC/MS analysis; type: ADME, organism-based; settings: in vivo
[19] = Apparent permeability of compound in human Caco-2 cells from basal to apical after 30 mins by LC-MS/MS analysis; type: ADME, cell-based
[20] = Apparent permeability of compound in human Caco-2 cells from basal to apical after 60 mins by LC-MS/MS analysis; type: ADME, cell-based
[21] = Apparent permeability of compound in human Caco-2 cells from apical to basal after 90 mins by LC-MS/MS analysis; type: ADME, cell-based
[22] = Cytotoxicity against dog MDCK-II-BCRP cells after 48 hrs by MTT assay; type: functional, cell-based; settings: Canis lupus familiaris
[23] = system: A549; test: Antiproliferative activity against human A549 cells highly expressing EGFR after 48 hrs by MTT assay; type: functional, cell-based; settings: A549, 48 h
[24] = system: K562/A02; test: Cytotoxicity against human K562/A02 cells after 48 hrs by MTT assay; type: functional, cell-based; settings: K562/A02, 48 h
[25] = system: K562; test: Cytotoxicity against human K562 cells after 48 hrs by MTT assay; type: functional, cell-based; settings: K562, 48 h
[26] = system: MDCK; test: Cytotoxicity against dog MDCK cells after 48 hrs by MTT assay; type: functional, cell-based; settings: Canis lupus familiaris
[27] = biological target: T1, Broad substrate specificity ATP-binding cassette transporter ABCG2 (Homo sapiens, UniProt Q9UNQ0); test: Inhibition of BCRP (unknown origin)
T1 sequence (Q9UNQ0 whole entry): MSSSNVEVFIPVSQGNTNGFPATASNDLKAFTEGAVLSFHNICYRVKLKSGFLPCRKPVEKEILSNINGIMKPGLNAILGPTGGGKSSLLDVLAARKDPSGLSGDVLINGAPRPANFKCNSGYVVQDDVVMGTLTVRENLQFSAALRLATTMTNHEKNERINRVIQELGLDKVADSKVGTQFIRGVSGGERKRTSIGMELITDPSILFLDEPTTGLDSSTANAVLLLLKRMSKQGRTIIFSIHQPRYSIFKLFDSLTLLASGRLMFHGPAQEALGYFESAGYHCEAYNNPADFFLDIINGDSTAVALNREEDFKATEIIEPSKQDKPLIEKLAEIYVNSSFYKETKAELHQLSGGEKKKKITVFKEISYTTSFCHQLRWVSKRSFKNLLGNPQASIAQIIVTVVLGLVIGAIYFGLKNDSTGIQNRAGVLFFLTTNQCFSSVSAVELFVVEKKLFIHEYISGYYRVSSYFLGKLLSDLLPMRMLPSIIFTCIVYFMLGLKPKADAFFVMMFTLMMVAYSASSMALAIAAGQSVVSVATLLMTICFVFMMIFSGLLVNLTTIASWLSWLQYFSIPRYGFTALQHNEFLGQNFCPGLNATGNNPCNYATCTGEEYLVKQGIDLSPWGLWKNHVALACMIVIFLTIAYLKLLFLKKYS

[28] = biological target: T2, ATP-dependent translocase ABCB1 (Homo sapiens, UniProt P08183); test: Inhibition of P-gp (unknown origin)
T2 sequence (P08183 whole entry): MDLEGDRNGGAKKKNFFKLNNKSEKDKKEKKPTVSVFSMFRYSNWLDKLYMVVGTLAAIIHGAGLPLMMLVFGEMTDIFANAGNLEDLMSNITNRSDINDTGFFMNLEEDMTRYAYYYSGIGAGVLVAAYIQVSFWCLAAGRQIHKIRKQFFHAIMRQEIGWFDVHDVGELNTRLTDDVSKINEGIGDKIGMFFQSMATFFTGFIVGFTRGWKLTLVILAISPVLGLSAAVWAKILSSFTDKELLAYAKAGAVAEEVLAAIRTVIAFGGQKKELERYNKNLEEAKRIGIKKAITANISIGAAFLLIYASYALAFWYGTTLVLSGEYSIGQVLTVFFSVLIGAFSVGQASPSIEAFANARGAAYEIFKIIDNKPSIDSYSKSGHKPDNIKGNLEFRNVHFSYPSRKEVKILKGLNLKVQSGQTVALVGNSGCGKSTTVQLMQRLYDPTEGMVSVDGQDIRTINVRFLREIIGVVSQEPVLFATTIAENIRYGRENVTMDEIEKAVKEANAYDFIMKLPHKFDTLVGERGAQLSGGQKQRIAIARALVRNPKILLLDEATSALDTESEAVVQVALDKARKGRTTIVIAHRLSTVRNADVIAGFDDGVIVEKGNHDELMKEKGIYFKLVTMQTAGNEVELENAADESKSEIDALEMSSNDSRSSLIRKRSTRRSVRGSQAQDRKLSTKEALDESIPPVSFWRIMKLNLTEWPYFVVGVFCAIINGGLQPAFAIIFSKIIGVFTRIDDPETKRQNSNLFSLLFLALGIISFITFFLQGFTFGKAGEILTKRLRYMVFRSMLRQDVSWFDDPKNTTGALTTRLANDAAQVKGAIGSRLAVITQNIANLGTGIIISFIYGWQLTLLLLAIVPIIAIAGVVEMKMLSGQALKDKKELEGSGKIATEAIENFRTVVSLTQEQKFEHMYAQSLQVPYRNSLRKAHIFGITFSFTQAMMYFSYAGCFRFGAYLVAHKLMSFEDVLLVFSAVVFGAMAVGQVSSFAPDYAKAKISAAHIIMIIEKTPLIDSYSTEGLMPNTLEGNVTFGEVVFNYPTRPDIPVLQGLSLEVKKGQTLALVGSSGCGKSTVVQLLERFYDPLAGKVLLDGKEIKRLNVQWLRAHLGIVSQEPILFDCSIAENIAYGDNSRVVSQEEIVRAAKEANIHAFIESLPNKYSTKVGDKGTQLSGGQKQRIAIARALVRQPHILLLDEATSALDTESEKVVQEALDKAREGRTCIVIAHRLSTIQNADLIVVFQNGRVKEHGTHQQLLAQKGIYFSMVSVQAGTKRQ

[29] = biological target: T2, ATP-dependent translocase ABCB1; test: Inhibition of P-gp in human K562/A02 cells assessed as rescue of intracellular Rhodamine 123 accumulation at 5 uM incubated for 5 to 120 mins and measured by flow cytometry analysis; type: cell-based; settings: k562/a02, 5 µM, time 5-120 min
[30] = Reversal of P-gp-mediated multidrug resistance in human K562/A02 cells assessed as potentiation of adriamycin-induced cytotoxicity at 0.04 uM by measuring adriamycin IC50 after 48 hrs by MTT assay
[31] = system: Caco-2; test: Cytotoxicity against human Caco-2 cells assessed as reduction in cell viability at 50 uM after 48 hrs by MTT assay; type: toxicity, cell-based; settings: caco-2, 48 h
[32] = Reversal of BCRP-mediated multidrug resistance in dog MDCK-II-BCRP cells in presence of mitoxantrone after 48 hrs by MTT assay; type: cell-based; settings: Canis lupus familiaris
[33] = biological target: T2, ATP-dependent translocase ABCB1; test: Inhibition of P-gp-mediated multidrug resistance in human K562/A02 cells assessed as adriamycin accumulation at 0.5 to 5 uM pretreated 1.5 hrs followed by treated with adriamycin measured after 4 hrs by flow cytometry analysis; type: cell-based; settings: k562/a02, 1.5 h, dose 0.5-5 µM
[34] = system: MDCK-II-BCRP; test: Inhibition of BCRP-mediated multidrug resistance in dog MDCK-II-BCRP cells assessed as mitoxantrone accumulation at 0.1 to 5 uM pretreated 1.5 hrs followed by treated with mitoxantrone measured after 4 hrs by flow cytometry analysis; type: cell-based; settings: Canis lupus familiaris, dose 0.1-5 µM

IC50 [23]: > 100 µM
Compound: O=C(NCCN1CCOCC1)c1nn(-c2ccc(Cl)cc2)c(=O)c2ccccc12
IC50 [22]: > 100 µM
IC50 [24]: > 100 µM
IC50 [25]: > 100 µM
IC50 [26]: > 100 µM

IC50 [23]: 73.4 µM
Compound: O=C(NCCCN1CCOCC1)c1nn(-c2ccc(Cl)cc2)c(=O)c2ccccc12
IC50 [22]: > 100 µM
IC50 [24]: > 100 µM
IC50 [25]: > 100 µM
IC50 [26]: > 100 µM

EC50 [27]: 0.17 µM
EC50 [28]: > 4.93 µM
Compound: C#Cc1cccc(Nc2ncnc3cc(OCCOC)c(OCCOC)cc23)c1 [ERLOTINIB]

inhibition (INH) [29]: Active
EC50 [28]: > 1 µM
Compound: COc1cc2ncnc(Nc3ccc(F)c(Cl)c3)c2cc1OCCCN1CCOCC1 [GEFITINIB]

IC50 [23]: > 100 µM
Compound: COc1ccc(CCNC(=O)c2nn(-c3ccc(Cl)cc3)c(=O)c3ccccc23)cc1OC
IC50 [22]: > 100 µM
IC50 [24]: > 100 µM
IC50 [25]: > 100 µM
IC50 [26]: > 100 µM

IC50 [23]: > 100 µM
Compound: O=C(Nc1ccc(CCN2CCc3ccccc3C2)cc1)c1nn(-c2ccc(Cl)cc2)c(=O)c2ccccc12
IC50 [22]: > 100 µM
IC50 [24]: > 100 µM
IC50 [25]: > 100 µM
IC50 [26]: > 100 µM

IC50 [23]: 69.1 µM
Compound: O=C(NCCc1cccc(F)c1)c1nn(-c2ccc(Cl)cc2)c(=O)c2ccccc12
IC50 [22]: > 100 µM
IC50 [24]: > 100 µM
IC50 [25]: > 100 µM
IC50 [26]: > 100 µM

inhibition (INH) [33]: Active
inhibition (INH) [29]: Active
Compound: O=C(Nc1ccc(CCN2CCOCC2)cc1)c1nn(-c2ccc(Cl)cc2)c(=O)c2ccccc12
IC50 [22]: 81.2 µM
IC50 [30]: 7232 µM
Activity [31]: < 20%
EC50 [32]: 0.0982 µM
IC50 [24]: 43.3 µM
IC50 [25]: 72.8 µM
IC50 [26]: 87.7 µM
inhibition [34]: Active

inhibition (INH) [29]: Active
Compound: COc1ccc(CCN(C)CCCC(C#N)(c2ccc(OC)c(OC)c2)C(C)C)cc1OC (stereo not given)
IC50 [24]: 39.9 µM

The next lines start with the compound.

Compound: CC(=O)O[C@H]1C(=O)[C@@]2(C)[C@H]([C@H](OC(=O)c3ccccc3)[C@]3(O)C[C@H](OC(=O)[C@H](O)[C@@H](NC(=O)c4ccccc4)c4ccccc4)C(C)=C1C3(C)C)[C@]1(OC(C)=O)CO[C@@H]1C[C@@H]2O [PACLITAXEL]
bioavailability [1]: 45.1%
Cmax [2]: 652 ng/mL
Tmax [3]: 2.51 h
AUC(0-t) [4]: 3130 ng·h/mL
F [5]: 100%
Papp A→B at 1 h [6]: 1.02 ×10⁻⁶ cm/s
Papp B→A at 3 h [7]: 19.4 ×10⁻⁶ cm/s
Papp B→A at 1.5 h [8]: 5.85 ×10⁻⁶ cm/s
Cmax [9]: 112 ng/mL
Papp A→B at 2 h [10]: 2.42 ×10⁻⁶ cm/s
Papp A→B at 3 h [11]: 2.69 ×10⁻⁶ cm/s
Tmax [12]: 2 h
Papp B→A at 2 h [13]: 11.1 ×10⁻⁶ cm/s
Activity [14]: < 20%
Papp A→B at 0.5 h [15]: 0.09 ×10⁻⁶ cm/s
half-life [16]: 1.68 h
Vd/F [17]: 16 L
CL/F [18]: 103 mL/min
Papp B→A at 0.5 h [19]: 1.29 ×10⁻⁶ cm/s
Papp B→A at 1 h [20]: 2.5 ×10⁻⁶ cm/s
Papp A→B at 1.5 h [21]: 1.98 ×10⁻⁶ cm/s

Compound: O=C(Nc1ccc(N2CCOCC2)cc1)c1nn(-c2ccc(Cl)cc2)c(=O)c2ccccc12
IC50 [22]: > 100 µM
IC50 [23]: > 100 µM
IC50 [24]: > 100 µM
IC50 [25]: > 100 µM
IC50 [26]: > 100 µM

Compound: COc1ccc2c3c([nH]c2c1)[C@H](CC(C)C)N1C(=O)[C@H](CCC(=O)OC(C)(C)C)NC(=O)[C@@H]1C3
IC50 [22]: > 100 µM
IC50 [26]: 93.3 µM

Compound: O=C(NCCc1cccc(Cl)c1)c1nn(-c2ccc(Cl)cc2)c(=O)c2ccccc12
IC50 [22]: 51.4 µM
IC50 [23]: > 100 µM
IC50 [24]: > 100 µM
IC50 [25]: > 100 µM
IC50 [26]: > 100 µM

Compound: COc1cc2c(cc1OC)CN(CCc1ccc(NC(=O)c3cc(OC)c(OC)cc3NC(=O)c3cnc4ccccc4c3)cc1)CC2
IC50 [22]: > 100 µM
IC50 [26]: > 100 µM

Compound: COc1cccc2c1C(=O)c1c(O)c3c(c(O)c1C2=O)C[C@@](O)(C(=O)CO)C[C@@H]3O[C@H]1C[C@H](N)[C@H](O)[C@H](C)O1 [DOXORUBICIN HYDROCHLORIDE]
IC50 [24]: 78.3 µM
IC50 [25]: 0.92 µM

Compound: O=C(NCCc1ccccc1)c1nn(-c2ccc(Cl)cc2)c(=O)c2ccccc12
IC50 [22]: 97.3 µM
IC50 [23]: 43.5 µM
IC50 [24]: > 100 µM
IC50 [25]: > 100 µM
IC50 [26]: > 100 µM

Compound: CS(=O)(=O)CCNCc1ccc(-c2ccc3ncnc(Nc4ccc(OCc5cccc(F)c5)c(Cl)c4)c3c2)o1 [LAPATINIB]
EC50 [27]: 3.2 µM
EC50 [28]: > 2.79 µM
